Experimental data published in US8546416B2, “3-spirocyclic piperidine derivatives as ghrelin receptor agonists” (Novartis AG, priority 2011, dated 2013).

What was measured:
[1] = Aqueous solubility of crystalline L-malate salt forms compared to free base amorphous form; assay type: physicochemical; conditions: crystalline L-malate salt compared to the free base amorphous form
[2] = biological target: T1, human recombinant ghrelin receptor (GHS-R1a) (Homo sapiens, UniProt Q92847); test: hGHS-R1a Ca assay (Fluo-4 calcium assay in CHO-K1 cells); assay type: cell-based; conditions: CHO-K1 cells expressing human GHS-R1a; agonist dose response up to 30 μM
T1 construct: host or cells: CHO-K1
T1 sequence (Q92847 whole entry): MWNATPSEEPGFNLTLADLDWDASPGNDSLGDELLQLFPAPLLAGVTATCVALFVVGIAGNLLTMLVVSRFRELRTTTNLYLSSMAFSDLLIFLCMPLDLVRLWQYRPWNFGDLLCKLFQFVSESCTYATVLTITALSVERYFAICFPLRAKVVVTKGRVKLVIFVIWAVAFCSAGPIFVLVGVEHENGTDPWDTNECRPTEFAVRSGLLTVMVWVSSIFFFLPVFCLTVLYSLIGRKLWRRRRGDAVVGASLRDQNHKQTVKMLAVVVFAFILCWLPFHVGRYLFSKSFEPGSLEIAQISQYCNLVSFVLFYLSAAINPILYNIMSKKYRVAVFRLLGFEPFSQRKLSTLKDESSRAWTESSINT
Experimental: (§1) Chinese hamster ovary (CHO-K1) cells expressing human recombinant ghrelin receptor (GHS-R1a) were purchased from Euroscreen (ES-410-C) and propagated in UltraCHO medium containing glutamine and supplemented with 1% heat inactivated foetal calf serum (FCS), 100 U/ml penicillin, 100 mg/l streptomycin and 0.8 g/l geneticin. Cells were sub-cultured twice a week with a 1:10 dilution. For passaging, cells were washed with 1×DPBS without calcium and magnesium, trypsinised for 10 min with 0.05% Trypsin/EDTA and resuspended in cell culture medium.
Cells were diluted to achieve 1×10^6 cells/ml, seeded in 384-well black clear bottom CellBind plates at 25000 cells/well (25 ul) and incubated overnight at 37° C./5% CO2 Cells were expected to be 85-90% confluent on the day of assay (checked under the microscope) to ensure a high quality assay. Media was manually removed and 40 μl of loading solution containing probenecid and Fluo-4 no wash dye (a calcium indicator, Invitrogen F36206) were added to each well. After 30 min at 37° C. followed by another 30 min at RT, cpds were added to the wells. To generate a dose response up to 30 μM, 10 mM compound stocks in 100% (v/v) DMSO were firstly diluted in 50% (v/v) DMSO. Then, serial dilutions aimed at a full logarithmic dose responses (8 point) were performed in assay buffer [1×HBSS, 20 mM Hepes, 0.1% (w/v) BSA] to give 2.5% (v/v) DMSO and 5× final compound concentrations. The final assay DMSO concentration was 0.5% (v/v). After loading the cells with Fluo-4 containing solution, plates were read on a CellLux instrument (Perkin Elmer). A protocol set up to add 10 μl of 5× compound and to read the plate for 60 sec after adding the compound at 17th sec was used. Fluorescence excitation took place at 494 nm and emission at 516 nm. EC50 values of agonists were calculated by fitting the percent stimulation over background [(Max−Min)/Min] using the nonlinear logistic function of the Prism 5 software (GraphPad, USA).

[3] = biological target: T1, human recombinant ghrelin receptor (GHS-R1a); test: hGHS-R1a cAMP assay (HTRF cAMP dynamic 2 kit, CHO-hGHS-R1a cells); assay type: cell-based; conditions: 60 min incubation, dose response up to 30 μM
Experimental: as §1
The Homogeneous Time-Resolved Fluorescence (HTRF) cAMP dynamic 2 kit (Cisbio International, France) was used as follows. CHO-hGHS-R1a or CHO-rGHS-R1a cells were seeded in a volume of 25 μl culture media at 10,000 cells/well (400,000 cells/ml) in Greiner white 384-well high volume plates and incubated overnight (18-24 h) at 37° C./5% CO2. Then, media was removed and 6 μl assay buffer [HBSS, 10 mM Hepes, 0.2% (w/v) BSA, 1.7 mM IBMX, (pH7.4)] were added to the wells. To generate a dose response up to 30 μM, 10 mM compound stocks in 100% (v/v) DMSO were firstly diluted in 50% (v/v) DMSO followed by a further dilution into assay buffer. Then, 4 μl of 2.5× compound (dose response as 9 point log serial dilution in assay buffer from 30 μM as maximum concentration) were added to each well achieving a final DMSO assay concentration of 0.8% (v/v). 0.1 μM forskolin was added as positive control. After 30 min (rGHS-R1a cell line) or 60 min (hGHS-R1a cell line) incubation at 37° C./5% CO2, 5 μl of cAMP-d2 and 5 μl of anti-cAMP antibody-cryptate, (both made in lysis buffer), were added to the plate followed by 1 h incubation at RT. During this time, cAMP produced by the cells competed with cAMP-d2 for the anti-cAMP antibody-cryptate molecule. Then, the plate was read on the Pherastar instrument (BMG, Germany) at two different emission wavelengths (620 and 650 nm). Increasing levels of endogenous cAMP produced by cells could be followed by a decrease of FRET fluorescent signal and viceversa. Values represented by a change in arbitrary fluorescence ratios (665/620) were converted into cAMP concentrations by using a standard curve, the reagents for which were supplied with the kit. EC50 values of agonists were calculated using the nonlinear logistic function of the Prism 5 software (GraphPad, USA). Emax were expressed as relative values of the ghrelin response, which was defined as 100%.

Row | Compound | aqueous solubility [1] | EC50 [2] [µM] | EC50 [3] [µM]
1 | Cc1ccc(C2CN(C)C(=O)C23CCCN(C(=O)[C@@H](COCc2ccccc2)NC(=O)C(C)(C)N)C3)cc1.O=C(O)C[C@H](O)C(=O)O (stereo partly drawn) [2-amino-N-((2R)-3-(benzyloxy)-1-(2-methyl-1-oxo-4-p-tolyl-2,7-diazaspiro[4.5]decan-7-yl)-1-oxopropan-2-yl)-2-methylpropanamide L-malate salt] | increased aqueous solubility |  | 
2 | CN1C[C@@H](c2ccccc2)[C@@]2(CCCN(C(=O)[C@@H](COCc3ccccc3)NC(=O)C(C)(C)N)C2)C1=O.O=C(O)C[C@H](O)C(=O)O [2-Amino-N-[(R)-1-benzyloxymethyl-2-((4S,5R)-2-methyl-1-oxo-4-phenyl-2,7-diaza-spiro[4.5]dec-7-yl)-2-oxo-ethyl]-2-methyl-propionamide L-malate salt] | increased aqueous solubility |  | 
3 | CN1N=C(c2ccccc2)C2(CCCN(C(=O)[C@@H](COCc3ccccc3)NC(=O)C(C)(C)N)C2)C1=O (mixture of isomers) [Example 1.47, 2-Amino-N-[(R)-1-benzyloxymethyl-2-(3-methyl-4-oxo-1-phenyl-2,3,7-triaza-spiro[4.5]dec-1-en-7-yl)-2-oxo-ethyl]-2-methyl-propionamide] |  | 0.0017 | 0.385
4 | COc1ccc(COC[C@@H](NC(=O)C(C)(C)N)C(=O)N2CCCC3(C2)C(=O)N(C)CC3c2ccccc2)cc1 (single isomer, unassigned) [Example 6.0(ii), 2-Amino-N-[(R)-1-(4-methoxy-benzyloxymethyl)-2-((4S,5R)-2-methyl-1-oxo-4-phenyl-2,7-diaza-spiro[4.5]dec-7-yl)-2-oxo-ethyl]-2-methyl-propionamide or 2-Amino-N-[(R)-1-(4-methoxy-benzyloxymethyl)-2-(4R,5S)-2-methyl-1-oxo-4-phenyl-2,7-diaza-spiro[4.5]dec-7-yl)-2-oxo-ethyl]-2-methyl-propionamide] |  | 0.0005 | 0.109
5 | CC(C)(C)CN1CC(c2ccccc2)C2(CCCN(C(=O)[C@@H](COCc3ccccc3)NC(=O)C(C)(C)N)C2)C1=O (stereo partly drawn) [Example 1.75, 2-amino-N-((2R)-3-(benzyloxy)-1-(2-neopentyl-1-oxo-4-phenyl-2,7-diazaspiro[4.5]decan-7-yl)-1-oxopropan-2-yl)-2-methylpropanamide] |  | 0.0036 | 0.302
6 | CN1C[C@@H](c2ccc(F)cc2)[C@@]2(CCCN(C(=O)[C@@H](COCc3ccccc3)NC(=O)C(C)(C)N)C2)C1=O.O=C(O)C[C@H](O)C(=O)O [2-amino-N-((2R)-3-(benzyloxy)-1-((4S,5R)-4-(4-fluorophenyl)-2-methyl-1-oxo-2,7-diazaspiro[4.5]decan-7-yl)-1-oxopropan-2-yl)-2-methylpropanamide L-malate salt] | increased aqueous solubility |  | 
7 | CN(C)C(=O)CN1CC(c2ccccc2)C2(CCCN(C(=O)[C@@H](COCc3ccccc3)NC(=O)C(C)(C)N)C2)C1=O (single isomer, unassigned) [Example 1.16] |  | 0.0005 | 0.039

More lines, now with the values ahead:

Row | aqueous solubility [1] | EC50 [2] [µM] | EC50 [3] [µM] | Compound
8 |  | 0.0054 | 5.9 | COc1ccc(C2CN(C)C(=O)C23CCCN(C(=O)[C@@H](COCc2ccccc2)NC(=O)C(C)(C)N)C3)cc1 (stereo partly drawn) [Example 1.74, 2-amino-N-((2R)-3-(benzyloxy)-1-(4-(4-methoxyphenyl)-2-methyl-1-oxo-2,7-diazaspiro[4.5]decan-7-yl)-1-oxopropan-2-yl)-2-methylpropanamide]
9 |  | 0.00011 | 0.036 | Cc1ccc(C2CN(C)C(=O)C23CCCN(C(=O)[C@@H](COCc2ccccc2)NC(=O)C(C)(C)N)C3)cc1 (single isomer, unassigned) [Example 1.53]
10 |  | 0.0021 | 1.93 | CN1CC(c2ccccc2)C2(CCCN(C(=O)[C@@H](COCc3ccccc3)NC(=O)C(C)(C)N)C2)C1=O (single isomer, unassigned) [Example 1.21]
11 |  | 0.0003 | 0.043 | CCN1CC(c2ccccc2)C2(CCCN(C(=O)[C@@H](COCc3ccccc3)NC(=O)C(C)(C)N)C2)C1=O (single isomer, unassigned) [Example 1.25]
